Measured values: patent publication US8614313B2, “Pharmaceutical compositions comprising forms of 5-azacytidine” (Pharmion LLC, priority 2003, dated 2013)
Blank lines part the entries; values can stand above or below the molecule they belong to.

Legend:
Assay type in all cases: physicochemical
[1] = Polymorphic form conversion: Form I slurried in various solvents, recovered solid analyzed using XRPD
Description: (§1) X-ray powder diffraction patterns for each sample were obtained on a Scintag XDS 2000 or a Scintag X2 θ/θ diffractometer operating with copper radiation at 45 kV and 40 mA using a Kevex Psi Peltier-cooled silicon detector or a Thermo ARL Peltier-cooled solid state detector. Source slits of 2 or 4 mm and detector slits of 0.5 or 0.3 mm were used for data collection. Recrystallized material was gently milled using an agate mortar and pestle for approximately one minute. Samples were placed in a stainless steel or silicon sample holder and leveled using a glass microscope slide. Powder diffraction patterns of the samples were obtained from 2 to 42° 2θ at 1°/minute. Calibration of the X2 diffractometer is verified annually using a silicon powder standard.
Form I of 5-azacytidine was added to various solvents in sufficient quantities to form a slurry, and the slurry allowed to equilibrate for a period of time. The solid material that was present in the slurry was recovered, dried, and analyzed using XRPD (according to the XRPD protocol included in Example 5) with the aim of detecting new polymorphs and pseudopolymorphs during the transition to the dissolved state.

[2] = Polymorphic form conversion of other forms slurried in water, solid analyzed using XRPD; settings: approximate 25 mg/mL, equilibrated 15 minutes
Description: as §1

[3] = Dehydration of Form III by heating; TGA water content and XRPD
Description: as §1
Thermogravimetric Analysis (TGA) measurements for each sample were collected using a Perkin Elmer TGA 7 purged with nitrogen at approximately 20 cc/minute. A 100-mg standard weight and nickel metal were used to verify balance and temperature calibrations, respectively. Samples were heated from 25° C. to 250° C. or 300° C. at 10° C./minute.
5-azacytidine Form III was heated at 105° C. for 4 hours in an attempt to dehydrate the material. […] TGA was used to measure the water content of Form III before and after drying.

- XRPD Pattern Assignment ([1]; slurry equilibrated 19 hours in 5% Dextrose): Form III
- XRPD Pattern Assignment ([1]; slurry equilibrated 19 hours in 5% Tween 80): Form III
- XRPD Pattern Assignment ([1]; slurry equilibrated 19 hours in 50/50 EtOH/DI Water): Form III
- XRPD Pattern Assignment ([1]; slurry equilibrated 19 hours in Acetone): Form I
- XRPD Pattern Assignment ([1]; slurry equilibrated 19 hours in DI Water): Form III
- XRPD Pattern Assignment ([1]; slurry equilibrated 19 hours in DMSO): Amorphous
- XRPD Pattern Assignment ([1]; slurry equilibrated 19 hours in Ethyl alcohol): Form I
- XRPD Pattern Assignment ([1]; slurry equilibrated 19 hours in Methyl ethyl ketone): Form I
- XRPD Pattern Assignment ([1]; slurry equilibrated 19 hours in Normal Saline): Form III
- XRPD Pattern Assignment ([1]; slurry equilibrated 19 hours in Polyethylene glycol): Amorphous
- XRPD Pattern Assignment ([1]; slurry equilibrated 19 hours in Propylene glycol): Amorphous
- XRPD Pattern Assignment ([1]; slurry equilibrated 19 hours in Water-saturated Octanol): Form III
SMILES: Nc1ncn([C@@H]2O[C@H](CO)[C@@H](O)[C@H]2O)c(=O)n1 [Form I, 5-azacytidine]

- form observed by XRPD after slurry in water [2]: Form III
SMILES: Nc1ncn([C@@H]2O[C@H](CO)[C@@H](O)[C@H]2O)c(=O)n1 [Form I/II mixed phase, 5-azacytidine]

- amount of moisture (TGA) ([3]; after drying at 105° C. for 4 hours): < 0.1%
- XRPD powder pattern after dehydration ([3]; heated at 105° C. for 4 hours): matches that of Form I
- amount of moisture (TGA) ([3]; initial, before drying): 6.31%
SMILES: Nc1ncn([C@@H]2O[C@H](CO)[C@@H](O)[C@H]2O)c(=O)n1 [Form III, 5-azacytidine]
